These results are taken from patent publication US9096601B2 (CSPC Zhongqi Pharmaceutical Technology (Shijiazhuang) Co., …, priority 2010, dated 2015).

Like-named read-outs stand apart in the source and are kept apart here.

Holding throughout (test): In-vitro tumor cell proliferation inhibition, MTT
Common to all, as to format: cell-based, human

The subject of assay [1] is acute myelogenous leukemia cell strain MV4-11.
For assay [2], the system named is breast carcinoma cell strain BT474. A digest of the protocol:
(§1)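 A431, HCC827, SW620 and BT474 cells (HCC827 seeded at 6×10^4 cells/ml) treated overnight-after-plating with graded compound concentrations for 72 h at 37° C; MTT read at 570 nm. Inhibition calculated versus untreated control, triplicate wells, ≥3 repeats; reported as IC50 or inhibitory rate.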

Assay [3] has as its system breast carcinoma cell strain MDA-MB-468.
Assay [4] relates to chronic granulocytic leukemia cell strain K562.
The subject of assay [5] is colon cancer cell strain HCT116.
Assay [6] deals with colon cancer cell strain SW480.
The test system of assay [7] is colon cancer cell strain SW620. A digest of the protocol: as §1
Assay [8] relates to gastric cancer cell strain MK-45. The following applies: 72 hours, read-out: MK45 (IC50).
Assay [9] concerns liver cancer cell strain Hep G2.
For assay [10], the system named is malignant melanoma cell strain A375.
Assay [11] relates to squamous cell carcinoma cell strain A431. Summed up:
as §1

The mark [12] stands for this setting: 72 hours, read-out: HEPG2 (IC50).

The term IC50 denotes the point on the concentration scale where inhibition reaches its midpoint. As to `CC(C)n1c(Nc2cccc(Br)c2)nc2cnc(Nc3ccc(N4CCN(C)CC4)cc3)nc21` [Compounds 8-11], the IC50 in assay [1] (72 hours) was 3760 nM; in [2] (72 hours), 575 nM; in [3] (72 hours), 1190 nM; in assay [4] (72 hours), 366 nM; in assay [5] (72 hours), 1680 nM; in assay [6] (72 hours), above 10000 nM. Moreover, the concentration for half-maximal inhibition (IC50) in assay [7] (72 hours) was 1960 nM; in assay [8] it was above 1000 nM; in [9] (setting [12]), 11200 nM; in assay [10] (72 hours) it was 1390 nM; in assay [11] (72 hours), 7670 nM.

`CC(C)n1c(Nc2ccccc2)nc2cnc(Nc3ccc(C(=O)NN4CCN(C)CC4)cc3)nc21` [Compound 8-1]: the concentration for half-maximal inhibition (IC50) in assay [1] (72 hours) was 89 nM; in assay [2] (72 hours), 2130 nM; in [3] (72 hours), 2060 nM; in assay [4] (72 hours), 1080 nM; in assay [5] (72 hours), above 10000 nM; in [6] (72 hours) it was 5720 nM. The IC50 in assay [7] (72 hours) was above 10000 nM; in assay [8], 6800 nM; in [9] (setting [12]) it was above 10000 nM; in [10] (72 hours), 3020 nM; in assay [11] (72 hours) it was 2060 nM.

As to `CC(C)n1c(Nc2cccc(C(F)(F)F)c2)nc2cnc(Nc3ccc(N4CCN(C)CC4)cc3)nc21` [Compounds 8-16], the IC50 is 4800 nM in assay [1] (72 hours); 1370 nM in assay [2] (72 hours); 1960 nM in [3] (72 hours); 2520 nM in assay [4] (72 hours); 766 nM in [5] (72 hours); 6480 nM in assay [6] (72 hours). Moreover, the IC50 in [7] (72 hours) is 864 nM; in assay [8] it was above 1000 nM; in [9] (setting [12]), 10400 nM; in assay [10] (72 hours), 3100 nM; in assay [11] (72 hours) it was 5880 nM.

As for `CN1CCN(c2ccc(Nc3ncc4nc(Nc5ccccc5)n(C)c4n3)cc2)CC1` [Compounds 8-24], the IC50 is 288 nM in assay [1] (72 hours); 2410 nM in assay [2] (72 hours); 9650 nM in [3] (72 hours); 1420 nM in [4] (72 hours); 1380 nM in assay [5] (72 hours); above 10000 nM in assay [6] (72 hours). Moreover, the IC50 was above 10000 nM in [7] (72 hours); 8080 nM in assay [8]; above 10000 nM in assay [9] (setting [12]); 2400 nM in assay [10] (72 hours); 9650 nM in [11] (72 hours).

Turning to `CC(C)n1c(Nc2ccc(NC(=O)Nc3ccc(F)c(Cl)c3)cc2)nc2cnc(Nc3ccc(N4CCN(C)CC4)cc3)nc21` [Compounds 8-21], the IC50 in assay [1] (72 hours) is 279 nM; in assay [2] (72 hours), 1590 nM; in assay [3] (72 hours) it was 890 nM; in assay [4] (72 hours), 1340 nM; in [5] (72 hours), 772 nM; in assay [6] (72 hours), above 10000 nM. Further, the half-inhibitory concentration (IC50) in assay [7] (72 hours) came out at 2220 nM; in [8] it was 1330 nM; in assay [9] (setting [12]), 8930 nM; in [10] (72 hours) it was 725 nM; in assay [11] (72 hours), 5720 nM.

`C#Cc1cccc(Nc2nc3cnc(Nc4ccc(N5CCN(C)CC5)cc4)nc3n2C(C)C)c1` [Compounds 8-12]: the half-maximal inhibitory concentration (IC50) in [1] (72 hours) is 1710 nM; in [2] (72 hours) it was 2140 nM; in assay [3] (72 hours), 3220 nM; in assay [4] (72 hours), 221 nM; in [5] (72 hours) it was 4010 nM; in assay [6] (72 hours), above 10000 nM. Further, the IC50 was 1290 nM in assay [7] (72 hours); above 1000 nM in [8]; 6610 nM in assay [9] (setting [12]); 3090 nM in [10] (72 hours); 2570 nM in assay [11] (72 hours).

With `CN1CCN(c2ccc(Nc3ncc4nc(Nc5ccccc5)[nH]c4n3)cc2)CC1` [Compounds 8-25], the concentration for half-maximal inhibition (IC50) in assay [1] (72 hours) is 7900 nM; in assay [2] (72 hours), 9990 nM; in assay [3] (72 hours) it was above 10000 nM; in assay [4] (72 hours) it was above 10000 nM; in assay [5] (72 hours), above 10000 nM; in assay [6] (72 hours) it was above 10000 nM. The IC50 in assay [7] (72 hours) is above 10000 nM; in assay [8] it was 5350 nM; in [9] (setting [12]) it was above 10000 nM; in assay [10] (72 hours), above 10000 nM; in assay [11] (72 hours), above 10000 nM.

Regarding `C=CC(=O)Nc1cccc(Nc2ncc3nc(Nc4ccccc4)n(C(C)C)c3n2)c1` [Compounds 8-38], the IC50 is 730 nM in [1] (72 hours); 1680 nM in [2] (72 hours); 280 nM in assay [3] (72 hours); 268 nM in assay [4] (72 hours); 443 nM in [5] (72 hours); above 10000 nM in [6] (72 hours). For the same compound, the IC50 is 370 nM in assay [7] (72 hours); 1790 nM in assay [8]; 2900 nM in [9] (setting [12]); above 10000 nM in assay [10] (72 hours); 179 nM in [11] (72 hours).

As to `CC(C)n1c(Nc2ccc(F)c(Cl)c2)nc2cnc(Nc3ccc(N4CCN(C)CC4)cc3)nc21` [Compounds 8-13], the IC50 is 512 nM in assay [1] (72 hours); 202 nM in assay [2] (72 hours); 2100 nM in assay [3] (72 hours); 86 nM in assay [4] (72 hours); 2540 nM in assay [5] (72 hours); above 10000 nM in assay [6] (72 hours). In addition, the 50% inhibitory concentration (IC50) in [7] (72 hours) is 3680 nM; in [8] it was above 1000 nM; in assay [9] (setting [12]), 5960 nM; in assay [10] (72 hours), 838 nM; in assay [11] (72 hours), 1290 nM.

As to `COc1cc(C(=O)NN2CCN(C)CC2)ccc1Nc1ncc2nc(Nc3ccccc3)n(C(C)C)c2n1` [Compound 8-7, 3-methoxy-4-(9-isopropyl-8-phenylamino-9H-purin-2-ylamino)-N-(4-methylpiperazin-1-yl)benzamide], the half-inhibitory concentration (IC50) in assay [1] (Homo sapiens, MV4-11, 72 hours) was above 10000 nM; in assay [2] (Homo sapiens, BT-474, 72 hours) it was 5820 nM; in assay [3] (Homo sapiens, MDA-MB-468, 72 hours) it was above 10000 nM; in [4] (Homo sapiens, K562, 72 hours), above 10000 nM; in assay [5] (Homo sapiens, HCT-116, 72 hours), above 10000 nM; in assay [6] (Homo sapiens, SW480, 72 hours) it was above 10000 nM. Moreover, the IC50 in assay [7] (Homo sapiens, SW-620, 72 hours) is above 10000 nM; in assay [8] (Homo sapiens), 3760 nM; in [9] (Homo sapiens, HepG2, 72 hours), above 10000 nM; in [10] (Homo sapiens, A-375, 72 hours), 1310 nM; in [11] (Homo sapiens, A-431, 72 hours), above 10000 nM.

Consider `CC(C)n1c(NC2CCCCC2)nc2cnc(Nc3ccc(N4CCN(C)CC4)cc3)nc21` [Compounds 8-30], for which the IC50 in assay [1] (72 hours) is 7960 nM; in assay [2] (72 hours), 4460 nM; in assay [3] (72 hours) it was above 10000 nM; in [4] (72 hours) it was 5760 nM; in assay [5] (72 hours) it was above 10000 nM; in assay [6] (72 hours), above 10000 nM. Besides, the half-maximal inhibitory concentration (IC50) in [7] (72 hours) was 4220 nM; in assay [8], 5470 nM; in [9] (setting [12]), above 10000 nM; in [10] (72 hours), above 10000 nM; in [11] (72 hours), above 10000 nM.

With `CC(C)n1c(Nc2ccc(Br)cc2)nc2cnc(Nc3ccc(N4CCN(C)CC4)cc3)nc21` [Compounds 8-15], the IC50 in [1] (72 hours) is 197 nM; in assay [2] (72 hours), 1920 nM; in [3] (72 hours), 2300 nM; in assay [4] (72 hours), 303 nM; in [5] (72 hours), 2200 nM; in assay [6] (72 hours), above 10000 nM. Besides, the half-maximal inhibitory concentration (IC50) in assay [7] (72 hours) was found to be 2990 nM; in assay [8], 710 nM; in assay [9] (setting [12]) it was 7790 nM; in assay [10] (72 hours) it was 775 nM; in assay [11] (72 hours), 9400 nM.

As to `CC(C)n1c(Nc2ccc(C(=O)Nc3cccc(F)c3)cc2)nc2cnc(Nc3ccc(N4CCN(C)CC4)cc3)nc21` [Compounds 8-22], the 50% inhibitory concentration (IC50) in [1] (72 hours) is 283 nM; in assay [2] (72 hours), 1720 nM; in assay [3] (72 hours) it was 1720 nM; in [4] (72 hours) it was 921 nM; in assay [5] (72 hours), 1830 nM; in assay [6] (72 hours), above 10000 nM. For the same compound, the IC50 in assay [7] (72 hours) is 1920 nM; in [8] it was 511 nM; in assay [9] (setting [12]), above 10000 nM; in [10] (72 hours), 1300 nM; in assay [11] (72 hours), 5520 nM.

As to `CC(C)n1c(Nc2ccc(F)c(Cl)c2)nc2cnc(Nc3ccc(C(=O)NN4CCN(C)CC4)cc3)nc21` [Compound 8-2], the IC50 in assay [1] (72 hours) was 1770 nM; in [2] (72 hours), 1860 nM; in assay [3] (72 hours), 6130 nM; in [4] (72 hours), 3730 nM; in assay [5] (72 hours), 7810 nM; in assay [6] (72 hours), above 10000 nM. Besides, the IC50 in assay [7] (72 hours) was 5570 nM; in assay [8], above 1000 nM; in [9] (setting [12]) it was above 10000 nM; in [10] (72 hours), 1590 nM; in [11] (72 hours), 9290 nM.

Consider `CC(C)n1c(Nc2ccccc2)nc2cnc(Nc3ccc(C(=O)NC4CCN(C)CC4)cc3)nc21` [Compounds 8-9], for which the IC50 in assay [1] (72 hours) was 235 nM; in assay [2] (72 hours), 1030 nM; in [3] (72 hours) it was 1320 nM; in assay [4] (72 hours), 143 nM; in assay [5] (72 hours), 518 nM; in assay [6] (72 hours), above 10000 nM. Moreover, the 50% inhibitory concentration (IC50) in assay [7] (72 hours) was 524 nM; in assay [8] it was 764 nM; in [9] (setting [12]), above 10000 nM; in assay [10] (72 hours), 586 nM; in assay [11] (72 hours), 1530 nM.

For `CN1CCN(c2ccc(Nc3ncc4nc(Nc5ccccc5)n(C5CC5)c4n3)cc2)CC1` [Compounds 8-23], the IC50 in assay [1] (72 hours) was 241 nM; in assay [2] (72 hours), 6810 nM; in assay [3] (72 hours), 5220 nM; in assay [4] (72 hours), 5200 nM; in [5] (72 hours) it was above 10000 nM; in assay [6] (72 hours) it was above 10000 nM. The half-maximal inhibitory concentration (IC50) in [7] (72 hours) is above 10000 nM; in assay [8] it was 2790 nM; in [9] (setting [12]) it was above 10000 nM; in [10] (72 hours), 3180 nM; in [11] (72 hours) it was 7040 nM.
